The values below come from US20240425512A1, “NITROGEN-CONTAINING HETEROCYCLIC COMPOUND, PHARMACEUTICAL COMPOSITION THEREOF AND APPLICATION THEREOF” (280 Bio, Inc., priority 2023, published 2024).

Data set [1] relates to AGS gastric cancer cell line with KRAS G12D mutation. Nature of the data set: Proliferation inhibition on RAS cell lines measured by CTG (CellTiter Glo), AGS. In kind it is cell-based. The note with it: Homo sapiens, 120 h, Table 1, AGS cells, incubated for 5 days. The source says:
(§1) NCI-H358 is a human non-small cell lung cancer cell line with KRAS G12C mutation; AGS is a gastric cancer cell line with KRAS G12D mutation; SW620 is a colon cancer cell with KRAS G12V mutation; NCI-H460 is a non-small cell lung cancer cell with KRAS Q61H mutation; MKN1 is a wild-type gastric cancer cell with KRAS-amplified; LS513 is a colon cancer cell with KRAS G12D mutation; LoVo is a colon cancer cell with KRAS G13D mutation; NCI-H441 is a lung cancer cell with KRAS G12V mutation, and Capan-2 is a pancreatic cancer cell with KRAS G12V mutation.
(§2) The proliferation inhibitory effect of the compounds on various mutations was evaluated by determining the proliferation inhibitory activity of the compounds on these cell lines.
(§3) The assay was conducted on either 384-well plates or 96-well plates. The procedures are as follows:
(§4) The cell suspensions were added to 384- or 96-well plates (384-well plate: 50 μL; 96-well plate: 100 μL) except for peripheral wells. The plates were placed in a carbon dioxide incubator overnight. NCI-H358, AGS, NCI-H460, MKN-1, LS513, LoVo, and NCI-H441 were placed in a 5%, 370 carbon dioxide incubator overnight, and SW620 was placed in a 0%, 370 carbon dioxide incubator overnight. The HPD300 micro-dosing instrument was used to add the corresponding concentration of compound to each well (9-10 concentration gradients of compound were obtained by 3-fold dilution). Cell plates were incubated in a carbon dioxide incubator for 5-6 days. NCI-H358, AGS, NCI-H460 and MKN-1 were incubated at 5%, 37° incubator and SW620 was incubated at 0%, 370 incubator. On the day of plate measurement, the 384- or 96-well plates were first equilibrated at room temperature for 10-30 min, then CellTiter Glo reagent (384-well plate: 25 μL; 96-well plate: 100 μL) was added to the 384- or 96-well plate, shaken for 10 min away from light, and incubated for 10 min. The plates were placed into Victor NIVO or ENVIDION reader plates, and XLFit was utilized to plot the pharmacodynamic inhibition curve and calculate the IC50 value. “IC50>10 μM” is denoted by “*”, “10 μM≥IC50≥1 μM” is denoted by “**”, and “1 μM≥IC50>100 nM” is denoted by “***”, “IC50<100 nM” is denoted by “****”

Data set [2] has as its system NCI-H358 human non-small cell lung cancer cell line with KRAS G12C mutation. Briefly: Proliferation inhibition on RAS cell lines measured by CTG, NCI-H358. The note with it: Homo sapiens, 144 h; Table 1; NCI-H358 cells, incubated for 6 days, CellTiter Glo; read-out: IC50 (H358 ^b). In kind it is cell-based.
From the text: as §1, §2, §3, §4

Data set [3] relates to SW620 colon cancer cell with KRAS G12V mutation. Nature of the data set: Proliferation inhibition on RAS cell lines measured by CTG, SW620. In kind it is cell-based. Particulars: Homo sapiens, SW-620, 144 h; Table 1; SW620 cells, incubated for 6 days, CellTiter Glo; read-out: IC50 (SW620 ^c).
From the text: as §1, §2, §3, §4

For data set [4], the system named is NCI-H460 non-small cell lung cancer cell with KRAS Q61H mutation. Nature of the data set: Proliferation inhibition on RAS cell lines measured by CTG, NCI-H460. In kind it is cell-based. The note with it: Homo sapiens, 144 h; Table 1; NCI-H460 cells, incubated for 6 days, CellTiter Glo; read-out: IC50 (NCI-H460 ^d).
From the text: as §1, §2, §3, §4

Data set [5] deals with MKN1 wild-type gastric cancer cell with KRAS-amplified. Nature of the data set: Proliferation inhibition on RAS cell lines measured by CTG, MKN1. In kind it is cell-based. Particulars: Homo sapiens, MKN-1, 144 h; Table 1; MKN1 cells, incubated for 6 days, CellTiter Glo; read-out: IC50 (MKN1 ^e).
From the text: as §1, §2, §3, §4

The test system of data set [6] is LS513 colon cancer cell with KRAS G12D mutation. Nature of the data set: Proliferation inhibition on RAS cell lines measured by CTG, LS513. In kind it is cell-based. The note with it: Homo sapiens, LS-513, 144 h, LS513 cells, incubated for 6 days, read-out: IC50 (LS513^f). Summed up:
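Cells were seeded overnight in a 5% CO2 incubator. Compound was added as 9-10 point, 3-fold dilutions and incubated 5-6 days, with NCI-H460 and AGS stated at 5% CO2, 37°. Viability was read by CellTiter-Glo luminescence, and IC50 was taken from the inhibition curve.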

Data set [7] relates to LoVo colon cancer cell with KRAS G13D mutation. Briefly: Proliferation inhibition on RAS cell lines measured by CTG, LoVo. In kind it is cell-based. Particulars: Homo sapiens, LoVo, 144 h, LoVo cells, incubated for 6 days, read-out: IC50 (LoVo^g).
From the text: as §1, §2, §3, §4

For data set [8], the system named is NCI-H441 lung cancer cell with KRAS G12V mutation. Briefly: Proliferation inhibition on RAS cell lines measured by CTG, NCI-H441. In kind it is cell-based. Particulars: Homo sapiens, NCI-H441, 144 h, NCI-H441 cells, incubated for 6 days.
From the text: as §1, §2, §3, §4

The nature of data set [9]: Pharmacokinetic study in mice after intravenous administration. In kind it is in vivo. The note with it: mouse, 5 mg/kg, male C57BL/6J mice, plasma. The procedure:
(§5) After intravenous and oral administration in male C57BL/6J mice (6-8 weeks), plasma samples were collected through the orbital venous plexus at 8 time points (5 min, 15 min, 30 min, 1 h, 2 h, 4 h, 7 h, 24 h), and the collected blood samples were transferred to microcentrifuge tubes containing EDTA-K2 anticoagulant, and centrifuged at 4° C., 4,000 g. After 5 min, the supernatant was taken and stored in a refrigerator at −75° C. ±15° C. LC-MS/MS was used to detect the concentrations of the compounds in the plasma at different time points, and the relevant pharmacokinetic parameters […] were calculated using WinNonlin software.

Data set [10] is described as follows: Pharmacokinetic study in mice after oral administration. In kind it is in vivo. Particulars: mouse, 30 mg/kg, male C57BL/6J mice, plasma. The procedure: as §5

Where two headings read alike, the source gives them in different places.

In the case of `C#Cc1c(F)ccc2cc(O)cc(-c3ncc4c(N5CCCCCN5)nc(OC[C@@]56CCCN5C[C@H](F)C6)nc4c3F)c12` [Compound 4], the 50% inhibitory concentration (IC50) was under 100 nM in [1]; under 100 nM in data set [2]; under 100 nM in data set [3]; 100 to 1000 nM in [4]; under 100 nM in data set [5]; 3.6 nM in [6] (Table 1, numeric value). Moreover, the IC50 is under 100 nM in data set [6] (Table 1, CellTiter Glo); 7.8 nM in [7] (Table 1, numeric value); under 100 nM in [7] (Table 1, CellTiter Glo); 3.6 nM in [8] (Table 1, numeric value); under 100 nM in data set [8] (Table 1, CellTiter Glo). Also, the values for the AUC(0-inf) in [9] and in data set [10] were 24300 ng·h/mL and 10400 ng·h/mL, respectively. The results for the AUC(0-t) in data set [9] and in data set [10] were 24300 ng·h/mL and 10400 ng·h/mL, respectively. The same compound showed a C0 in [9] of 96100 ng/mL. For the same compound, the clearance in data set [9] came to 3.43 mL/min/kg. Besides, the half-life in data set [9] (5% DMSO + 10% Solutol HS15 + 85% (20% HP-β-CD in water)) is 2.63 h; in data set [10] (0.1% Tween 80 + 0.5% MC in water), 1.89 h. Further, the Vd in [9] (read-out: Vss) was found to be 0.205 L/kg. For the same compound, the peak concentration (Cmax) in [10] turned out to be 2290 ng/mL. Also, the time of peak concentration (Tmax) in data set [10] is 4 h.
